Test results as given in patent publication US10988523B2, “Modified lipidated Relaxin B chain peptides and their therapeutic use” (Sanofi, priority 2018, dated 2021).
*1 amine or outer side, *2 acyl side, *3 side chain or, on linkers, in order; H or OH if unused. Where a SMILES comes first, the peptide text is derived from it. Side-chain parts run from the residue outwards. [ ]: non-standard residue; d: D form. The star is where a group is joined. αMeW = C[C@](N)(Cc1c[nH]c2ccccc12)C(=O)O; γGlu = O=C(O)[C@H](CCC(=O)[*:2])N[*:1]; Arg(Me) = CNC(=N)NCCC[C@H](N)C(=O)O; Stearoyl = CCCCCCCCCCCCCCCCCC(=O)*; Palmitoyl = CCCCCCCCCCCCCCCC(=O)*; Cit = NC(=O)NCCC[C@H](N)C(=O)O; αMeK = C[C@](N)(CCCCN)C(=O)O; Nle = CCCC[C@H](N)C(=O)O; AEEA = NCCOCCOCC(=O)O; Aib = CC(C)(N)C(=O)O

Target: T1, RXFP1 (Homo sapiens, UniProt Q9HBX9)
T1 construct: OVCAR5 cells expressing endogenous RXFP1; endogenous in cells; host or cells: OVCAR5 cells
T1 sequence (Q9HBX9 1-757): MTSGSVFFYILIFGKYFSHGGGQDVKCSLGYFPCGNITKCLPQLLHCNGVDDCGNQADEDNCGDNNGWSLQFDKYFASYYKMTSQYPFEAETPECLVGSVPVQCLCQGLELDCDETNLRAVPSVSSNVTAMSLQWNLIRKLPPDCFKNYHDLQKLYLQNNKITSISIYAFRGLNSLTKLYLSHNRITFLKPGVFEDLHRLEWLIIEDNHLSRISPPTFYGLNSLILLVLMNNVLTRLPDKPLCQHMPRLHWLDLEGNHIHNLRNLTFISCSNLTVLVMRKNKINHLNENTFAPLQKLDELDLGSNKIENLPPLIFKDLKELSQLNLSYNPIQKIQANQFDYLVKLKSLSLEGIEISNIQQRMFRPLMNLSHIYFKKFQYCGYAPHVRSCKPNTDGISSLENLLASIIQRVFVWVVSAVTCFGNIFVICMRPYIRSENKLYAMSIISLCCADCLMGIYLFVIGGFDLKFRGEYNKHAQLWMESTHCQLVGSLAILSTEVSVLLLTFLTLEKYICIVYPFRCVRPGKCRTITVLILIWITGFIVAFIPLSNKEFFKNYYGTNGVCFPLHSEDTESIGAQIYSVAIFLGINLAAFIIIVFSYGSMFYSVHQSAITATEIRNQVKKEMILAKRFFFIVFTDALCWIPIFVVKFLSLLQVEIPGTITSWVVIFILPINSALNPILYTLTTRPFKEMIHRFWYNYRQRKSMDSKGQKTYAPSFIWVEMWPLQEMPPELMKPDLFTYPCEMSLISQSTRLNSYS
Assay: OVCAR5 cAMP assay (HTRF), RXFP1 agonist activity
Assay type: cell-based
Details: for EC50: OVCAR5 cells, cAMP HTRF, read-out: EC50 (nM), OVCAR 5 cells (cAMP); for Emax: OVCAR-5, maximal cAMP relative to H2-relaxin maximum (100%), read-out: EMax, OVCAR 5 cells (cAMP)
How it was run: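 cAMP accumulation readout: after 1 mM IBMX for 40 min, endogenous-RXFP1 OVCAR5 cells got rising peptide concentrations without FCS, 30 min, 37° C, then lysis with HTRF cAMP reagents. Nonlinear regression gave EC50; Emax expressed relative to H2-relaxin maximum, same occasion.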

Row | SMILES | EC50 [nM] | Emax [%]
1 | CCCCCCCCCCCCCCCC(=O)N[C@@H](CCC(=O)N[C@@H](CCC(=O)N[C@@H](CCC(=O)N[C@@H](CCC(=O)NCCCC[C@H](NC(=O)COCCOCCNC(=O)COCCOCCNC(=O)COCCOCCNC(=O)[C@H](CCCCNC(C)=O)NC(=O)[C@H](CCCCN)NC(=O)[C@H](CCCNC(=N)N)NC(=O)[C@](C)(CCCCN)NC(=O)[C@H](CO)NC(=O)[C@](C)(Cc1c[nH]c2ccccc12)NC(=O)[C@@H](NC(=O)[C@H](CO)NC(=O)[C@H](CCCC)NC(=O)CNC(=O)[C@H](CCC(=O)O)NC(=O)C(C)(C)NC(=O)C(C)(C)NC(=O)[C@@H](NC(=O)[C@H](CCCCNC(C)=O)NC(=O)[C@H](C)NC(=O)[C@H](CCCNC(=N)N)NC(=O)[C@@H](NC(=O)[C@H](CCCCN)NC(=O)[C@H](CCC(=O)O)NC(=O)[C@H](CCCNC(=N)N)NC(=O)CNC(=O)[C@H](CCC(=O)O)NC(=O)[C@H](CC(C)C)NC(C)=O)C(C)C)[C@@H](C)CC)[C@@H](C)O)C(N)=O)C(=O)O)C(=O)O)C(=O)O)C(=O)O [compound 125] (Ac-LEGREKVRAK(Ac)I[Aib][Aib]EG[Nle]ST[αMeW]S[αMeK]RKK(Ac)[AEEA][AEEA][AEEA]K([γGlu-γGlu-γGlu-γGlu-Palmitoyl])-NH2) | 0.1 | 89
2 | CCCCCCCCCCCCCCCCCC(=O)N[C@@H](CCC(=O)N[C@@H](CCC(=O)N[C@@H](CCC(=O)NCCOCCOCC(=O)NCCOCCOCC(=O)NCCOCCOCC(=O)NCCCC[C@H](NC(=O)[C@H](CCCCNC(C)=O)NC(=O)[C@H](C)NC(=O)[C@H](CCCNC(N)=O)NC(=O)C(C)(C)NC(=O)[C@H](CO)NC(=O)[C@H](Cc1c[nH]c2ccccc12)NC(=O)[C@@H](NC(=O)[C@H](CO)NC(=O)[C@H](CCCC)NC(=O)CNC(=O)[C@H](CCC(=O)O)NC(=O)C(C)(C)NC(=O)C(C)(C)NC(=O)[C@@H](NC(=O)[C@H](CCCCNC(C)=O)NC(=O)[C@H](C)NC(=O)[C@H](CCCNC(=N)N)NC(=O)[C@@H](NC(=O)[C@H](CCCCN)NC(=O)[C@H](CCC(=O)O)NC(=O)[C@H](CCCNC(=N)N)NC(=O)CNC(=O)[C@H](CCC(=O)O)NC(=O)[C@H](CC(C)C)NC(C)=O)C(C)C)[C@@H](C)CC)[C@@H](C)O)C(N)=O)C(=O)O)C(=O)O)C(=O)O [compound 126] (Ac-LEGREKVRAK(Ac)I[Aib][Aib]EG[Nle]STWS[Aib][Cit]AK(Ac)K([AEEA-AEEA-AEEA-γGlu-γGlu-γGlu-Stearoyl])-NH2) |  | 91
3 | CCCCCCCCCCCCCCCCCC(=O)N[C@@H](CCC(=O)N[C@@H](CCC(=O)N[C@@H](CCC(=O)NCCOCCOCC(=O)NCCOCCOCC(=O)NCCOCCOCC(=O)NCCCC[C@H](NC(=O)[C@H](CCCCNC(C)=O)NC(=O)[C@H](CCCCN)NC(=O)[C@H](CCCNC(N)=O)NC(=O)[C@](C)(CCCCN)NC(=O)[C@H](CO)NC(=O)[C@H](Cc1c[nH]c2ccccc12)NC(=O)[C@@H](NC(=O)[C@H](CO)NC(=O)[C@H](CCCC)NC(=O)CNC(=O)[C@H](CCC(=O)O)NC(=O)C(C)(C)NC(=O)C(C)(C)NC(=O)[C@@H](NC(=O)[C@H](CCCCNC(C)=O)NC(=O)[C@H](C)NC(=O)[C@H](CCCNC(=N)N)NC(=O)[C@@H](NC(=O)[C@H](CCCCN)NC(=O)[C@H](CCC(=O)O)NC(=O)[C@H](CCCNC(=N)N)NC(=O)CNC(=O)[C@H](CCC(=O)O)NC(=O)[C@H](CC(C)C)NC(C)=O)C(C)C)[C@@H](C)CC)[C@@H](C)O)C(N)=O)C(=O)O)C(=O)O)C(=O)O [compound 129] (Ac-LEGREKVRAK(Ac)I[Aib][Aib]EG[Nle]STWS[αMeK][Cit]KK(Ac)K([AEEA-AEEA-AEEA-γGlu-γGlu-γGlu-Stearoyl])-NH2) | 1 | 89
4 | CCCCCCCCCCCCCCCCCC(=O)N[C@@H](CCC(=O)N[C@@H](CCC(=O)N[C@@H](CCC(=O)NCCOCCOCC(=O)NCCOCCOCC(=O)NCCOCCOCC(=O)NCCOCCOCC(=O)NCCCC[C@H](NC(=O)[C@H](CCCCNC(C)=O)NC(=O)[C@H](C)NC(=O)[C@H](CCCNC(N)=O)NC(=O)[C@](C)(CCCCN)NC(=O)[C@H](CO)NC(=O)[C@H](Cc1c[nH]c2ccccc12)NC(=O)[C@@H](NC(=O)[C@H](CO)NC(=O)[C@H](CCCC)NC(=O)CNC(=O)[C@H](CCC(=O)O)NC(=O)C(C)(C)NC(=O)C(C)(C)NC(=O)[C@@H](NC(=O)[C@H](CCCCNC(C)=O)NC(=O)[C@H](C)NC(=O)[C@H](CCCNC(=N)N)NC(=O)[C@@H](NC(=O)[C@H](CCCCN)NC(=O)[C@H](CCC(=O)O)NC(=O)[C@H](CCCNC(=N)N)NC(=O)CNC(=O)[C@H](CCC(=O)O)NC(=O)[C@H](CC(C)C)NC(C)=O)C(C)C)[C@@H](C)CC)[C@@H](C)O)C(N)=O)C(=O)O)C(=O)O)C(=O)O [compound 132] (Ac-LEGREKVRAK(Ac)I[Aib][Aib]EG[Nle]STWS[αMeK][Cit]AK(Ac)K([AEEA-AEEA-AEEA-AEEA-γGlu-γGlu-γGlu-Stearoyl])-NH2) |  | 87

Continued, values first:

Row | EC50 [nM] | Emax [%] | SMILES
5 | 0.22 | 91 | CCCCCCCCCCCCCCCCCC(=O)N[C@@H](CCC(=O)N[C@@H](CCC(=O)N[C@@H](CCC(=O)N[C@@H](CCC(=O)NCCOCCOCC(=O)NCCOCCOCC(=O)NCCOCCOCC(=O)NCCCC[C@H](NC(=O)[C@H](CCCCNC(C)=O)NC(=O)[C@H](CCCCN)NC(=O)[C@H](CCCNC(=N)N)NC(=O)C(C)(C)NC(=O)[C@H](CO)NC(=O)[C@H](Cc1c[nH]c2ccccc12)NC(=O)[C@@H](NC(=O)[C@H](CO)NC(=O)[C@H](CCCC)NC(=O)CNC(=O)[C@H](CCC(=O)O)NC(=O)C(C)(C)NC(=O)C(C)(C)NC(=O)[C@@H](NC(=O)[C@H](CCCCNC(C)=O)NC(=O)[C@H](C)NC(=O)[C@H](CCCNC(=N)N)NC(=O)[C@@H](NC(=O)[C@H](CCCCN)NC(=O)[C@H](CCC(=O)O)NC(=O)[C@H](CCCNC(=N)N)NC(=O)CNC(=O)[C@H](CCC(=O)O)NC(=O)[C@H](CC(C)C)NC(C)=O)C(C)C)[C@@H](C)CC)[C@@H](C)O)C(N)=O)C(=O)O)C(=O)O)C(=O)O)C(=O)O [compound 128] (Ac-LEGREKVRAK(Ac)I[Aib][Aib]EG[Nle]STWS[Aib]RKK(Ac)K([AEEA-AEEA-AEEA-γGlu-γGlu-γGlu-γGlu-Stearoyl])-NH2)
6 |  | 93 | CCCCCCCCCCCCCCCC(=O)N[C@@H](CCC(=O)N[C@@H](CCC(=O)N[C@@H](CCC(=O)N[C@@H](CCC(=O)NCCOCCOCC(=O)NCCOCCOCC(=O)NCCOCCOCC(=O)NCCOCCOCC(=O)NCCCC[C@H](NC(=O)[C@H](CCCCNC(C)=O)NC(=O)[C@H](CCCCN)NC(=O)[C@H](CCCNC(=N)N)NC(=O)C(C)(C)NC(=O)[C@H](CO)NC(=O)[C@H](Cc1c[nH]c2ccccc12)NC(=O)[C@@H](NC(=O)[C@H](CO)NC(=O)[C@H](CCCC)NC(=O)CNC(=O)[C@H](CCC(=O)O)NC(=O)C(C)(C)NC(=O)C(C)(C)NC(=O)[C@@H](NC(=O)[C@H](CCCCNC(C)=O)NC(=O)[C@H](C)NC(=O)[C@H](CCCNC(=N)N)NC(=O)[C@@H](NC(=O)[C@H](CCCCN)NC(=O)[C@H](CCC(=O)O)NC(=O)[C@H](CCCNC(=N)N)NC(=O)CNC(=O)[C@H](CCC(=O)O)NC(=O)[C@H](CC(C)C)NC(C)=O)C(C)C)[C@@H](C)CC)[C@@H](C)O)C(N)=O)C(=O)O)C(=O)O)C(=O)O)C(=O)O [compound 130] (Ac-LEGREKVRAK(Ac)I[Aib][Aib]EG[Nle]STWS[Aib]RKK(Ac)K([AEEA-AEEA-AEEA-AEEA-γGlu-γGlu-γGlu-γGlu-Palmitoyl])-NH2)
7 | 0.01 | 83 | CCCCCCCCCCCCCCCCCC(=O)N[C@@H](CCC(=O)N[C@@H](CCC(=O)N[C@@H](CCC(=O)NCCOCCOCC(=O)NCCOCCOCC(=O)NCCOCCOCC(=O)NCCCC[C@H](NC(=O)[C@H](CCCCNC(C)=O)NC(=O)[C@H](CCCCN)NC(=O)[C@H](CCCNC(=N)NC)NC(=O)C(C)(C)NC(=O)[C@H](CO)NC(=O)[C@H](Cc1c[nH]c2ccccc12)NC(=O)[C@@H](NC(=O)[C@H](CO)NC(=O)[C@H](CCCC)NC(=O)CNC(=O)[C@H](CCC(=O)O)NC(=O)C(C)(C)NC(=O)C(C)(C)NC(=O)[C@@H](NC(=O)[C@H](CCCCNC(C)=O)NC(=O)[C@H](C)NC(=O)[C@H](CCCNC(=N)N)NC(=O)[C@@H](NC(=O)[C@H](CCCCN)NC(=O)[C@H](CCC(=O)O)NC(=O)[C@H](CCCNC(=N)N)NC(=O)CNC(=O)[C@H](CCC(=O)O)NC(=O)[C@H](CC(C)C)NC(C)=O)C(C)C)[C@@H](C)CC)[C@@H](C)O)C(N)=O)C(=O)O)C(=O)O)C(=O)O [compound 133] (Ac-LEGREKVRAK(Ac)I[Aib][Aib]EG[Nle]STWS[Aib][Arg(Me)]KK(Ac)K([AEEA-AEEA-AEEA-γGlu-γGlu-γGlu-Stearoyl])-NH2)
